# According to PMC9653409, “Generative deep learning enables the discovery of a potent and selective RIPK1 inhibitor” (Nature Communications, 2022):
# Values joined by “and” are separate entries in the source; they are usually repeats but may differ in a detail not shown here. Identical values can stand only once. Like-named read-outs stand apart in the source and are kept apart here.
# Tests used:
# IL-6 = assay: TNFα-induced SIRS mouse model: serum IL-6 (ELISA); format: in vivo, C57BL/6 female mice
# Experimental: (§1) The body temperatures of the mice were continuously monitored until 6 h after TNFα administration. At 6 h after TNFα injection, four mice in each group were killed at random, and the serums, heart, liver, spleen, lung, and kidney tissues were collected for analysis.
# (§2) In the TNFα-induced SIRS model, at 6 h after TNFα injection, four mice in each group were killed at random, and the serums were collected, the serum concentrations of IL-1β and IL-6 were measured using ELISA kits (Neobioscience Technology) according to manufacturer’s instructions. […] The supernatant was collected by sequential centrifugation at 500 × g for 10 min and 3000 × g for 10 min. The concentrations of cytokines TNFα, IL-6, and IL-1β were measured using ELISA kits (Neobioscience Technology).
# TNFα-induced SIRS [1] = assay: TNFα-induced SIRS mouse model: survival; format: in vivo, C57BL/6 female mice
# pRIPK1, pRIPK3, pMLKL = assay: DSS-induced IBD mouse model: colon western blot; format: in vivo, C57BL/6 female mice; conditions: 40 mg/kg i.p., day 7
# Experimental: The liver in the SIRS model and the colon in the IBD model were harvested, homogenated and sonicated in RIPA lysis buffer.
# The cell proteins or tissue proteins were separated in a polyacrylamide gel and transferred to a methanol-activated polyvinylidene fluoride membrane. The membrane was blocked for 2 h in Tris-buffered saline plus Tween-20 containing 5% milk and then immunoblotted sequentially with primary and secondary antibodies. Detection was performed with an ECL chemiluminescence kit (Abbkine). The antibodies used were human RIPK1 antibody (R&D, 334640, 1:1000), mouse RIPK1 antibody (Affinity, DF2642, 1:1000), human phospho-RIP (Ser166) rabbit mAb (Cell Signaling Technologies, 65746, 1:1000), mouse phospho-RIP (Ser321) rabbit mAb (Cell Signaling Technologies, 38662, 1:1000), human RIPK3 (B-2) antibody (Santa Cruz, sc-374639, 1:250), mouse RIPK3 antibody (Abcam, ab62344, 1:1000), human anti-RIP3 (phospho S227) antibody (Abcam, ab209384, 1:2000), mouse anti-RIP3 (phospho T231 + S232) antibody (Abcam, ab205421, 1:500), anti-MLKL (58–70) antibody (Sigma, M6697, 1:250), human anti-MLKL (phospho S358) antibody (Abcam, ab187091, 1:1000), mouse anti-MLKL (phospho S345) antibody (Abcam, ab196436, 1:1000), and β-actin (Proteintech, 66009-1-Ig, 1:1000).
# TNFα = assay: DSS-induced IBD mouse model: TNFα in cultured colon supernatant (ELISA); format: in vivo, C57BL/6 female mice
# Experimental: DSS (3% w/v) was administered in drinking water ad libitum for 7 d (from day 0 to day 7). DSS solution was replaced three times on day 2, day 4, and day 6. […] Three mice in each group were killed at random on day 7, and distal colon tissues were collected for analysis. The mice weight and survival rate were recorded daily.
# as §2
# [2] = Pharmacokinetics in Sprague-Dawley rats; format: in vivo; conditions: for Plasma Concentraion / concentration at 0.083 h / concentration at 0.5 h / concentration at 1 h / concentration at 2 h / concentration at 4 h / concentration at 6 h / concentration at 8 h: animals 1-3; for concentration at 0.083 h / concentration at 0.5 h / concentration at 1 h / concentration at 2 h / concentration at 4 h / concentration at 6 h / concentration at 8 h: read-out: Plasma Concentraion; for MRT inf: read-out: MRT0-∞
# Experimental: The PK properties of compounds were examined in male Sprague-Dawley rats (n = 3 per group, weight: 180–220 g). Compounds were dissolved in saline with 5% (v/v) DMSO plus 40% (v/v) PEG400. The animals were administered with a single dose of 5 mg/kg (intravenous injection (i.v.)), 20 mg/kg (intraperitoneal injection (i.p.) or oral gavage (p.o.)). Blood samples were collected at 0.083, 0.25, 0.5, 1, 2, 4, 6, 8, 10 and 24 h, and centrifuged to isolate plasma. Subsequently, the plasma compound concentrations were determined by LC-MS/MS-13 (TQ5500, SCIEX), and the PK parameters were calculated using Phoenix WinNonlin 7.0.
# IL-1β = assay: TNFα-induced SIRS mouse model: serum IL-1β (ELISA); format: in vivo, C57BL/6 female mice; conditions: 40 mg/kg i.p.
# Experimental: as §1, §2
# TNFα-induced SIRS [3] = assay: TNFα-induced SIRS mouse model: H&E histology of organs; format: in vivo, C57BL/6 female mice; conditions: 40 mg/kg i.p.
# Experimental: The body temperatures of the mice were continuously monitored until 6 h after TNFα administration. At 6 h after TNFα injection, four mice in each group were killed at random, and the serums, heart, liver, spleen, lung, and kidney tissues were collected for analysis. Mice mortality was continuously monitored until 72 h after TNFα administration.
# The heart, liver, spleen, lung, kidney and colon tissues were fixed directly in 4% paraformaldehyde (24 h), embedded in paraffin, and stained with H&E following standard procedures. All images were acquired using a Pannoramic MIDI scanner.
# [4] = male, Sprague-Dawley, rat, plasma, ip, 20 mg/kg
# [5] = male, Sprague-Dawley, rat, plasma, iv, 5 mg/kg
# [6] = male, Sprague-Dawley, rat, plasma, po, 20 mg/kg
smiles,measurement,setting,value
CC(C)C(=O)Nc1nc2cc(-c3ccc4c(c3)c(C(=O)NC(C)c3ccccc3)cn4C)ccn2n1 (stereo not drawn) [RI-962],concentration of IL-6,"IL-6; 40 mg/kg i.p., 6 h after TNFα",remarkably reduced
same,IL-6,"IL-6; Figure 8d, individual replicates 1-4",652.9 pg/mL and 1655 pg/mL and 2421 pg/mL and 1071 pg/mL
same,survival rate,TNFα-induced SIRS [1]; 40 mg/kg i.p. 15 min before mTNFα 300 μg/kg i.v.,90%
same,"1 means death, 0 means survival","TNFα-induced SIRS [1]; 40 mg/kg i.p., per animal",1 and 0
same,Time after mTNFα,"TNFα-induced SIRS [1]; 40 mg/kg i.p., per animal, time of death or end of observation",24 h and 72 h
same,"levels of pRIPK1, pRIPK3, and pMLKL in the colon","pRIPK1, pRIPK3, pMLKL","reduced the levels of pRIPK1, pRIPK3, and pMLKL proteins"
same,content of TNFα in cultured colonic tissue supernatants,"TNFα; 40 mg/kg i.p., day 7",substantially reduced
same,TNFα,"TNFα; Figure 9g, individual replicates 1-3",139.9 pg/mL and 111.6 pg/mL and 109.1 pg/mL
same,Plasma Concentraion,"[2]; Supplementary Figure 7 panel a, 0.083 h",11181.2 ng/mL and 13503.2 ng/mL
same,Plasma Concentraion,"[2]; Supplementary Figure 7 panel a, 0.5 h",2022.7 ng/mL and 2493.56 ng/mL
same,Plasma Concentraion,"[2]; Supplementary Figure 7 panel a, 1 h",324.429 ng/mL and 368.25 ng/mL
same,Plasma Concentraion,"[2]; Supplementary Figure 7 panel a, 2 h",53.1161 ng/mL and 49.8208 ng/mL
same,Plasma Concentraion,"[2]; Supplementary Figure 7 panel a, 4 h",20.793 ng/mL and 12.876 ng/mL
same,Plasma Concentraion,"[2]; Supplementary Figure 7 panel a, 6 h",12.1272 ng/mL and 7.691 ng/mL
same,Plasma Concentraion,"[2]; Supplementary Figure 7 panel a, 8 h",5.677 ng/mL and 3.748 ng/mL
same,Plasma Concentraion,"[2]; Supplementary Figure 7 panel b, 0.083 h",127.196 ng/mL and 183.609 ng/mL
same,Plasma Concentraion,"[2]; Supplementary Figure 7 panel b, 0.5 h",350.948 ng/mL and 617.101 ng/mL
same,Plasma Concentraion,"[2]; Supplementary Figure 7 panel b, 6 h",11.7068 ng/mL and 13.5938 ng/mL
same,Plasma Concentraion,"[2]; Supplementary Figure 7 panel b, 8 h",8.501 ng/mL and 5.3 ng/mL
same,Plasma Concentraion,"[2]; Supplementary Figure 7 panel c, 0.083 h",841.69 ng/mL and 1224.6 ng/mL
same,Plasma Concentraion,"[2]; Supplementary Figure 7 panel c, 0.5 h",4149.3 ng/mL and 2823.2 ng/mL
same,Plasma Concentraion,"[2]; Supplementary Figure 7 panel c, 1 h",3680.1 ng/mL and 2363 ng/mL
same,Plasma Concentraion,"[2]; Supplementary Figure 7 panel c, 2 h",635.78 ng/mL and 701.71 ng/mL
same,Plasma Concentraion,"[2]; Supplementary Figure 7 panel c, 4 h",226.7 ng/mL and 115.63 ng/mL
same,concentration at 0.083 h,"[2]; male, Sprague-Dawley, rat, plasma, intraperitoneal, 20 mg/kg, Supplementary Figure 7 panel c, 0.083 h",1010 ng/mL
same,concentration at 0.5 h,"[2]; male, Sprague-Dawley, rat, plasma, intraperitoneal, 20 mg/kg, Supplementary Figure 7 panel c, 0.5 h",3840 ng/mL
same,concentration at 1 h,"[2]; male, Sprague-Dawley, rat, plasma, intraperitoneal, 20 mg/kg, Supplementary Figure 7 panel c, 1 h",3080 ng/mL
same,concentration at 2 h,"[2]; male, Sprague-Dawley, rat, plasma, intraperitoneal, 20 mg/kg, Supplementary Figure 7 panel c, 2 h",737 ng/mL
same,concentration at 4 h,"[2]; male, Sprague-Dawley, rat, plasma, intraperitoneal, 20 mg/kg, Supplementary Figure 7 panel c, 4 h",229 ng/mL
same,concentration at 0.083 h,"[2]; male, Sprague-Dawley, rat, plasma, intravenous, 5 mg/kg, Supplementary Figure 7 panel a, 0.083 h",11800 ng/mL
same,concentration at 0.5 h,"[2]; male, Sprague-Dawley, rat, plasma, intravenous, 5 mg/kg, Supplementary Figure 7 panel a, 0.5 h",1610 ng/mL
same,concentration at 1 h,"[2]; male, Sprague-Dawley, rat, plasma, intravenous, 5 mg/kg, Supplementary Figure 7 panel a, 1 h",291 ng/mL
same,concentration at 2 h,"[2]; male, Sprague-Dawley, rat, plasma, intravenous, 5 mg/kg, Supplementary Figure 7 panel a, 2 h",59.6 ng/mL
same,concentration at 4 h,"[2]; male, Sprague-Dawley, rat, plasma, intravenous, 5 mg/kg, Supplementary Figure 7 panel a, 4 h",20.6 ng/mL
same,concentration at 6 h,"[2]; male, Sprague-Dawley, rat, plasma, intravenous, 5 mg/kg, Supplementary Figure 7 panel a, 6 h",11.6 ng/mL
same,concentration at 8 h,"[2]; male, Sprague-Dawley, rat, plasma, intravenous, 5 mg/kg, Supplementary Figure 7 panel a, 8 h",6.4 ng/mL
same,AUC(0-inf),[2]; [4],6610 ± 1120 ng·h/mL
same,AUC(0-t),[2]; [4],6460 ng·h/mL
same,Cmax,[2]; [4],3600 ± 693 ng/mL
same,Tmax,[2]; [4],0.5 h
same,bioavailability,[2]; [4],35.7 ± 6.3%
same,half-life,[2]; [4],8.5 ± 1.6 h
same,MRT inf,[2]; [4],2.8 ± 0.1 h
same,AUC(0-inf),[2]; [5],4540 ± 546 ng·h/mL
same,AUC(0-t),[2]; [5],4530 ng·h/mL
same,Cmax,[2]; [5],12200 ± 1200 ng/mL
same,Tmax,[2]; [5],0.1 h
same,clearance,[2]; [5],18.5 ± 2.1 mL/min/kg
same,half-life,[2]; [5],2.1 ± 0.2 h
same,MRT inf,[2]; [5],0.4 h
same,Vd,"[2]; male, Sprague-Dawley, rat, plasma, iv, 5 mg/kg, read-out: Vss",0.4 ± 0.1 L/kg
same,concentration at 0.083 h,"[2]; male, Sprague-Dawley, rat, plasma, oral, 20 mg/kg, Supplementary Figure 7 panel b, 0.083 h",113 ng/mL
same,concentration at 0.5 h,"[2]; male, Sprague-Dawley, rat, plasma, oral, 20 mg/kg, Supplementary Figure 7 panel b, 0.5 h",418 ng/mL
same,concentration at 6 h,"[2]; male, Sprague-Dawley, rat, plasma, oral, 20 mg/kg, Supplementary Figure 7 panel b, 6 h",11.3 ng/mL
same,concentration at 8 h,"[2]; male, Sprague-Dawley, rat, plasma, oral, 20 mg/kg, Supplementary Figure 7 panel b, 8 h",7.91 ng/mL
same,AUC(0-inf),[2]; [6],1600 ± 896 ng·h/mL
same,AUC(0-t),[2]; [6],1590 ng·h/mL
same,Cmax,[2]; [6],674 ± 425 ng/mL
same,Tmax,[2]; [6],0.8 ± 1 h
same,half-life,[2]; [6],1.3 ± 0.2 h
same,MRT inf,[2]; [6],1.8 ± 0.2 h
same,AUC0–t,"[2]; p.o., 20 mg/kg",1594.9 ± 891.8 ng·h/mL
same,F (%),"[2]; p.o., 20 mg/kg",8.8 ± 5.0%
same,concentration of IL-1β,IL-1β; 6 h after TNFα,remarkably reduced
same,IL-1β,"IL-1β; serum 6 h after TNFα, animals 1-4",95.48 pg/mL and 91.16 pg/mL and 77.29 pg/mL and 76.39 pg/mL
same,damage to the liver and kidney (H&E),TNFα-induced SIRS [3],attenuated damage to the liver and kidney
